Values of other authors, collected in EP1569663B1, “IFOSFAMIDE COMPOSITIONS FOR PARENTERAL ADMINISTRATION AND A PROCESS FOR THEIR PREPARATION” (Bharat Serums & Vaccines Ltd., priority 2002, dated 2004).

Assays:
[1] = in water
mouse = settings: intravenous administration

Structure (SMILES): O=P1(NCCCl)OCCCN1CCCl (centres unmarked) [Ifosfamide, 3-(2-chtoroethyl)-2-[(2-chloroethyl)amino]-tetrahydro-2H-1,3,2-oxazaphosphorin-2-oxide]
- water solubility [1]: about 100 mg/ml
- LD50 (mouse): 338 mg/kg body weight
